Measurements reported in PubChem BioAssay AID248 (DTP/NCI, 2004).
Toxic doses and inconclusive results are not listed. Cut-off read from the data, not from the text of the source: active = T/C of 150% or more; inactive = T/C below 125%.

Tested on: L1210 leukemia ip in BDF1 mice, survival T/C
Assay: NCI In Vivo Anticancer Drug Screen. Data for tumor model L1210 Leukemia (intraperitoneal) in B6D2F1 (BDF1) mice
Details: endpoint: mean survival time, higher = longer survival
Procedure, shortened: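 Transplantable tumor model; survival measured in treated vs vehicle control mice. Value = treated/control.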

[1] = dose: 100.0 mg/kg/injection, schedule: Q01DX009 (ip), vehicle: Klucel (hydroxypropylcellulose) (HPC)
[2] = dose: 100.0 mg/kg/injection, schedule: Q04DX003 (ip), vehicle: Klucel (hydroxypropylcellulose) (HPC)
[3] = dose: 200.0 mg/kg/injection, schedule: Q01DX009 (ip), vehicle: Klucel (hydroxypropylcellulose) (HPC)
[4] = dose: 200.0 mg/kg/injection, schedule: Q04DX003 (ip), vehicle: Klucel (hydroxypropylcellulose) (HPC)
[5] = dose: 400.0 mg/kg/injection, schedule: Q01DX009 (ip), vehicle: Klucel (hydroxypropylcellulose) (HPC)
[6] = dose: 400.0 mg/kg/injection, schedule: Q04DX003 (ip), vehicle: Klucel (hydroxypropylcellulose) (HPC)
[7] = dose: 100.0 mg/kg/injection, schedule: Q01DX001 (ip), vehicle: saline
[8] = dose: 200.0 mg/kg/injection, schedule: Q01DX001 (ip), vehicle: saline
[9] = dose: 400.0 mg/kg/injection, schedule: Q01DX001 (ip), vehicle: saline
[10] = dose: 100.0 mg/kg/injection, schedule: Q01DX001 (ip), vehicle: carboxymethylcellulose (CMC)
[11] = dose: 200.0 mg/kg/injection, schedule: Q01DX001 (ip), vehicle: carboxymethylcellulose (CMC)
[12] = dose: 400.0 mg/kg/injection, schedule: Q01DX001 (ip), vehicle: carboxymethylcellulose (CMC)
[13] = dose: 50.0 mg/kg/injection, schedule: Q01DX001 (ip), vehicle: saline
[14] = dose: 100.0 mg/kg/injection, schedule: Q04DX003 (ip), vehicle: other
[15] = dose: 200.0 mg/kg/injection, schedule: Q04DX003 (ip), vehicle: other
[16] = dose: 400.0 mg/kg/injection, schedule: Q04DX003 (ip), vehicle: other

Measured: T/C

CCC(=O)C(CCCN(C)C)(c1ccccc1)c1ccccc1
inactive: dose: 5.0 mg/kg/injection, schedule: Q01DX001 (ip), vehicle: saline 107 % of control | dose: 10.0 mg/kg/injection, schedule: Q01DX001 (ip), vehicle: saline 104 % of control | dose: 20.0 mg/kg/injection, schedule: Q01DX001 (ip), vehicle: saline 93 % of control | dose: 40.0 mg/kg/injection, schedule: Q01DX001 (ip), vehicle: saline 98 % of control

CCOC(=O)NCCBr
inactive: [1] 102 % of control | [2] 101 % of control | [3] 102 % of control | [4] 106 % of control | [5] 100 % of control | [6] 94 % of control

C#CC(C)(C)NC(=O)NC(C)(C)C
inactive: dose: 100.0 mg/kg/injection, schedule: Q04DX002 (ip), vehicle: gum acacia 112 % of control | dose: 200.0 mg/kg/injection, schedule: Q04DX002 (ip), vehicle: gum acacia 91 % of control | dose: 400.0 mg/kg/injection, schedule: Q04DX002 (ip), vehicle: gum acacia 102 % of control

CC(=Nc1cc(C)ccc1C)c1c(O)cc(C)oc1=O
inactive: [1] 97 % of control | [3] 97 % of control | [5] 103 % of control

CC(C)N1CC(C)(C)N=C1C(C#N)c1cnc2ccccc2n1 (stereo not given)
inactive: [7] 98 % of control | [8] 94 % of control | [9] 94 % of control

O=C(C(=O)c1ccc([N+](=O)[O-])cc1)c1ccccc1
inactive: [2] 97 % of control | [4] 100 % of control | [6] 94 % of control

NC(=O)Nc1ccc2c(c1)Cc1ccccc1-2
inactive: dose: 50.0 mg/kg/injection, schedule: Q01DX001 (ip), vehicle: carboxymethylcellulose (CMC) 100 % of control | [10] 96 % of control | [11] 100 % of control | [12] 102 % of control

Cc1ccc2c(ccc3nnc(C)n32)c1
inactive: [13] 109 % of control | [7] 103 % of control

CCN(CC)CCCC(C)Nc1cc(N)nc2nccnc12 (stereo not given)
inactive: dose: 25.0 mg/kg/injection, schedule: Q04DX003 (ip), vehicle: saline 102 % of control | dose: 50.0 mg/kg/injection, schedule: Q04DX003 (ip), vehicle: saline 111 % of control | dose: 100.0 mg/kg/injection, schedule: Q04DX003 (ip), vehicle: saline 107 % of control

C/C(=C\Cn1cc([N+](=O)[O-])ccc1=O)CCC(=O)O
inactive: dose: 100.0 mg/kg/injection, schedule: Q01DX009 (ip), vehicle: water 108 % of control | [14] 102 % of control | dose: 200.0 mg/kg/injection, schedule: Q01DX009 (ip), vehicle: water 96 % of control | [15] 98 % of control | dose: 400.0 mg/kg/injection, schedule: Q01DX009 (ip), vehicle: water 97 % of control | [16] 102 % of control

Ic1sc(I)c(I)c1I
inactive: [10] 95 % of control | [11] 93 % of control | [12] 104 % of control

Cc1cc(C(C)C)cc(C(C)C)c1
inactive: [1] 96 % of control | [2] 94 % of control | [3] 95 % of control | [4] 102 % of control | [6] 94 % of control

N#CC(c1ccc(Br)cc1)C1c2ccccc2-c2ccccc21 (stereo not given)
inactive: dose: 50.0 mg/kg/injection, schedule: Q01DX001 (ip), vehicle: Klucel (hydroxypropylcellulose) (HPC) 93 % of control | dose: 100.0 mg/kg/injection, schedule: Q01DX001 (ip), vehicle: Klucel (hydroxypropylcellulose) (HPC) 91 % of control | dose: 200.0 mg/kg/injection, schedule: Q01DX001 (ip), vehicle: Klucel (hydroxypropylcellulose) (HPC) 86 % of control

C[CH2][Ge]([CH2]C)[O][Ge]([CH2]C)[CH2]C.C[CH2][Ge]([CH2]C)[O][Ge]([CH2]C)[CH2]C
inactive: dose: 5.0 mg/kg/injection, schedule: Q04DX002 (ip), vehicle: saline with Tween-80 96 % of control | dose: 10.0 mg/kg/injection, schedule: Q04DX002 (ip), vehicle: saline with Tween-80 96 % of control | dose: 20.0 mg/kg/injection, schedule: Q04DX002 (ip), vehicle: saline with Tween-80 100 % of control

NC(=O)c1cnc(N)nc1C(N)=O
inactive: dose: 100.0 mg/kg/injection, schedule: Q01DX009 (ip), vehicle: saline with Tween-80 94 % of control | dose: 100.0 mg/kg/injection, schedule: Q04DX003 (ip), vehicle: saline with Tween-80 96 % of control | dose: 200.0 mg/kg/injection, schedule: Q01DX009 (ip), vehicle: saline with Tween-80 100 % of control | dose: 200.0 mg/kg/injection, schedule: Q04DX003 (ip), vehicle: saline with Tween-80 100 % of control | dose: 400.0 mg/kg/injection, schedule: Q01DX009 (ip), vehicle: saline with Tween-80 96 % of control | dose: 400.0 mg/kg/injection, schedule: Q04DX003 (ip), vehicle: saline with Tween-80 94 % of control

CC(=O)OC1CCC2(C)C(CCC3C4CCC(=O)OC4(C)CC(=O)C32)C1 (stereo not given)
inactive: dose: 100.0 mg/kg/injection, schedule: Q04DX003 (sc), vehicle: steriod suspending solution 104 % of control | dose: 200.0 mg/kg/injection, schedule: Q04DX003 (sc), vehicle: steriod suspending solution 100 % of control | dose: 400.0 mg/kg/injection, schedule: Q04DX003 (sc), vehicle: steriod suspending solution 97 % of control

CCCCCCCCCCCCCCCCC1CCCC2(CCCC2)C1 (stereo not given)
inactive: dose: 100.0 mg/kg/injection, schedule: Q01DX001 (ip), vehicle: saline with Tween-80 103 % of control | dose: 200.0 mg/kg/injection, schedule: Q01DX001 (ip), vehicle: saline with Tween-80 92 % of control | dose: 400.0 mg/kg/injection, schedule: Q01DX001 (ip), vehicle: saline with Tween-80 101 % of control

CCOc1cc(C=Nc2cccc(C(F)(F)F)c2)ccc1O
inactive: dose: 100.0 mg/kg/injection, schedule: Q01DX009 (ip), vehicle: other 100 % of control | [14] 95 % of control | dose: 200.0 mg/kg/injection, schedule: Q01DX009 (ip), vehicle: other 99 % of control | [15] 90 % of control | [16] 92 % of control

C[N+]1(Cc2ccccc2)CCC2(C(N)=O)CC1Cc1ccccc12 (stereo not given)
inactive: dose: 75.0 mg/kg/injection, schedule: Q01DX001 (ip), vehicle: other 105 % of control | dose: 150.0 mg/kg/injection, schedule: Q01DX001 (ip), vehicle: other 100 % of control | dose: 300.0 mg/kg/injection, schedule: Q01DX001 (ip), vehicle: other 93 % of control

CCOC(CN=Cc1ccc(Cl)c(Cl)c1)OCC
inactive: [2] 94 % of control | [4] 97 % of control | [6] 96 % of control

c1coc(CCc2nc3ccccc3[nH]2)c1
inactive: dose: 50.0 mg/kg/injection, schedule: Q01DX009 (ip), vehicle: Klucel (hydroxypropylcellulose) (HPC) 121 % of control | [1] 116 % of control | [2] 96 % of control | [3] 100 % of control | [4] 100 % of control

COc1ccc(CN2CCCN(Cc3ccc(OC)cc3OC)C2c2ccccn2)c(OC)c1
inactive: [13] 101 % of control | [7] 95 % of control | [8] 91 % of control | [9] 89 % of control

CCn1cc(C(=O)O)c(=O)c2cc(OC)c3ccccc3c21
inactive: dose: 50.0 mg/kg/injection, schedule: Q04DX002 (ip), vehicle: Klucel (hydroxypropylcellulose) (HPC) 92 % of control | dose: 100.0 mg/kg/injection, schedule: Q04DX002 (ip), vehicle: Klucel (hydroxypropylcellulose) (HPC) 103 % of control
